Results: US12446584B2, “Termiticide composition and methods for treating termites” (ADAMA MAKHTESHIM LTD., priority 2013, dated 2025)
Like-named read-outs stand apart in the source and are kept apart here.

Tests used:
Format in all cases: in vivo
[1] = tested on: Eastern subterranean termites (Reticulitermes flavipes); experiment: Thin plate bioassay; settings: 0.05% solution
Method: (§1) A laboratory study was conducted, using recently collected R. flavipes and C. formosanus. Thin plate bioassays were assembled using 0.6 cm glass and 0.6 cm clear Lexan. A sheet of 20.3×66 cm glass was used for the bottom. Two pieces of 2.5×61 cm glass were laid along the long edges, and two pieces of […]. Each arena had 450 g of screened sand evenly applied, and moistened with deionized water to help hold it in place during construction of the arenas. Fisher brand tongue depressors, cut in half, were used as a food source for the termites, and placed at one end of the arena. Prior to adding the Lexan top sheets, 0.6 cm holes were drilled at one end, and three 0.6 cm treatment apertures were drilled equally spaced apart at the center line. One 8 cm Petri dish with a 0.6 cm hole drilled in the bottom was lined up with the hole at the end of the top sheet, and glued down. Glue was allowed to dry for 72 hours. Large binder clips were used to hold the arena together.
(§2) Termiticide solutions were prepared as follows: Fipronil 0.017%; Fipronil 0.03%; Imidacloprid 0.05%; Imi-Fip 0.067% (Imidacloprid 0.05%, Fipronil 0.017%); and Untreated Control (water only). Ten ml of each finished solution of termiticide were applied to each arena: each of the three treatment apertures received 3.3 ml of termiticide. The treatments were allowed to dry for 24 hours, and the treatment apertures were covered with a 2.5×7.5 cm microscope slide. In each Petri dish, 500 worker and 15 soldier termites were added, using either R. flavipes or C. formosanus. Each treatment was replicated four times. Data regarding distance tunneled and mortality were collected daily for eight days. Data was analyzed using Analysis of Variance (ANOVA) and means were separated by Tukey's HSD (Honest Significant Difference test (IBM SPSS v 19).

[2] = tested on: Formosan subterranean termites (Coptotermes formosanus); experiment: Thin plate bioassay; settings: 0.05% solution
Method: as §1, §2

[3] = tested on: Eastern Subterranean Reticulitermes flavipes termites; experiment: Transfer effects among nestmates (donor/recipient Petri dish arenas); settings: donors treated with 50 ppm; for mortality at 50 ppm: Reticulitermes flavipes
Method: (§3) The purpose of this study was to determine whether there is transference of […] among nestmates of subterranean termites. Arenas for this study consisted of a 15 cm Petri dish. […] Donor and untreated marked control termites were marked using RustOleum® Marking Paint, using methodology described by Keefer et al. 2012.
(§4) Two untreated soldier termites for each species were added to each arena to simulate colony dynamics. Post-treatment observations for mortality were made at 4 h and then daily through day 7.

[4] = tested on: Formosan Coptotermes formosanus termites; experiment: as above; settings: donors treated with 50 ppm; for mortality at 50 ppm: Coptotermes formosanus
Method: as §3, §4

[5] = 4 h, by treatment (all ratios), 4 h, read-out: Mean % mortality of donors and recipients
[6] = 4 h, donor:recipient ratio 1:19, 4 h, read-out: Mean total % mortality of donors and recipients
[7] = 4 h, donor:recipient ratio 5:15, 4 h, read-out: Mean total % mortality of donors and recipients
[8] = 4 h, donor:recipient ratio 10:10, 4 h, read-out: Mean total % mortality of donors and recipients
[9] = 4 h, donor:recipient ratio 15:5, 4 h, read-out: Mean total % mortality of donors and recipients
[10] = 24 h, by treatment (all ratios), 1 d, read-out: Mean % mortality of donors and recipients
[11] = 24 h, donor:recipient ratio 1:19, 1 d, read-out: Mean total % mortality of donors and recipients
[12] = 24 h, donor:recipient ratio 5:15, 1 d, read-out: Mean total % mortality of donors and recipients
[13] = 24 h, donor:recipient ratio 10:10, 1 d, read-out: Mean total % mortality of donors and recipients
[14] = 24 h, donor:recipient ratio 15:5, 1 d, read-out: Mean total % mortality of donors and recipients
[15] = 48 h, by treatment (all ratios), 2 d, read-out: Mean % mortality of donors and recipients
[16] = 48 h, donor:recipient ratio 1:19, 2 d, read-out: Mean total % mortality of donors and recipients
[17] = 48 h, donor:recipient ratio 5:15, 2 d, read-out: Mean total % mortality of donors and recipients
[18] = 48 h, donor:recipient ratio 10:10, 2 d, read-out: Mean total % mortality of donors and recipients
[19] = 48 h, donor:recipient ratio 15:5, 2 d, read-out: Mean total % mortality of donors and recipients
[20] = 72 h, by treatment (all ratios), 3 d, read-out: Mean % mortality of donors and recipients
[21] = 72 h, donor:recipient ratio 1:19, 3 d, read-out: Mean total % mortality of donors and recipients
[22] = 72 h, donor:recipient ratio 5:15, 3 d, read-out: Mean total % mortality of donors and recipients
[23] = 72 h, donor:recipient ratio 10:10, 3 d, read-out: Mean total % mortality of donors and recipients
[24] = 72 h, donor:recipient ratio 15:5, 3 d, read-out: Mean total % mortality of donors and recipients
[25] = 96 h, by treatment (all ratios), 4 d, read-out: Mean % mortality of donors and recipients
[26] = 96 h, donor:recipient ratio 1:19, 4 d, read-out: Mean total % mortality of donors and recipients
[27] = 96 h, donor:recipient ratio 5:15, 4 d, read-out: Mean total % mortality of donors and recipients
[28] = 96 h, donor:recipient ratio 10:10, 4 d, read-out: Mean total % mortality of donors and recipients
[29] = 96 h, donor:recipient ratio 15:5, 4 d, read-out: Mean total % mortality of donors and recipients
[30] = 120 h, by treatment (all ratios), 5 d, read-out: Mean % mortality of donors and recipients
[31] = 120 h, donor:recipient ratio 1:19, 5 d, read-out: Mean total % mortality of donors and recipients
[32] = 120 h, donor:recipient ratio 5:15, 5 d, read-out: Mean total % mortality of donors and recipients
[33] = 120 h, donor:recipient ratio 10:10, 5 d, read-out: Mean total % mortality of donors and recipients
[34] = 120 h, donor:recipient ratio 15:5, 5 d, read-out: Mean total % mortality of donors and recipients
[35] = 144 h, by treatment (all ratios), 6 d, read-out: Mean % mortality of donors and recipients
[36] = 144 h, donor:recipient ratio 1:19, 6 d, read-out: Mean total % mortality of donors and recipients
[37] = 144 h, donor:recipient ratio 5:15, 6 d, read-out: Mean total % mortality of donors and recipients
[38] = 144 h, donor:recipient ratio 10:10, 6 d, read-out: Mean total % mortality of donors and recipients
[39] = 144 h, donor:recipient ratio 15:5, 6 d, read-out: Mean total % mortality of donors and recipients
[40] = 168 h, by treatment (all ratios), 7 d, read-out: Mean % mortality of donors and recipients
[41] = 168 h, donor:recipient ratio 1:19, 7 d, read-out: Mean total % mortality of donors and recipients
[42] = 168 h, donor:recipient ratio 5:15, 7 d, read-out: Mean total % mortality of donors and recipients
[43] = 168 h, donor:recipient ratio 10:10, 7 d, read-out: Mean total % mortality of donors and recipients
[44] = 168 h, donor:recipient ratio 15:5, 7 d, read-out: Mean total % mortality of donors and recipients

Question: What does the source list for O=[N+]([O-])NC1=NCCN1Cc1ccc(Cl)nc1 [Imidacloprid, N-[1-[(6-Chloro-3-pyridyl)methyl]-4,5-dihydroimidazol-2-yl]nitramide]?
Answer: Mean % mortality ([1]; 1 day post-treatment): 6.35 a %; Mean % mortality ([1]; 2 days post-treatment): 12.00 b %; Mean % mortality ([1]; 3 days post-treatment): 75.00 a %; Mean % mortality ([1]; 4 days post-treatment): 80.00 a %; Mean % mortality ([1]; 5 days post-treatment): 80.00 c %; Mean % mortality ([1]; 6 days post-treatment): 100.00 a %; Mean % mortality ([1]; 7 days post-treatment): 100.00 a %; Mean % mortality ([1]; 8 days post-treatment): 100.00 a %; Mean % mortality ([2]; 1 day post-treatment): 0.80 a %; Mean % mortality ([2]; 2 days post-treatment): 5.30 b %; Mean % mortality ([2]; 3 days post-treatment): 23.25 a %; Mean % mortality ([2]; 4 days post-treatment): 30.00 a %; Mean % mortality ([2]; 5 days post-treatment): 55.00 a %; Mean % mortality ([2]; 6 days post-treatment): 88.75 b %; Mean % mortality ([2]; 7 days post-treatment): 100.00 a %; Mean % mortality ([2]; 8 days post-treatment): 100.00a %; mortality at 50 ppm [3, 5]: 27%; mortality at 50 ppm [3, 6]: 10%; mortality at 50 ppm [3, 7]: 21.2%; mortality at 50 ppm [3, 8]: 43.8%; mortality at 50 ppm [3, 9]: 33.8%; mortality at 50 ppm [3, 10]: 64.4%; mortality at 50 ppm [3, 11]: 30%; mortality at 50 ppm [3, 12]: 51.2%; mortality at 50 ppm [3, 13]: 80%; mortality at 50 ppm [3, 14]: 96.2%; mortality at 50 ppm [3, 15]: 64.4%; mortality at 50 ppm [3, 16]: 30%; mortality at 50 ppm [3, 17]: 51.2%; mortality at 50 ppm [3, 18]: 80%; mortality at 50 ppm [3, 19]: 96.2%; mortality at 50 ppm [3, 20]: 73.4%; mortality at 50 ppm [3, 21]: 33.8%; mortality at 50 ppm [3, 22]: 60%; mortality at 50 ppm [3, 23]: 100%; mortality at 50 ppm [3, 24]: 100%; mortality at 50 ppm [3, 25]: 73.4%; mortality at 50 ppm [3, 26]: 72.5%; mortality at 50 ppm [3, 27]: 71.2%; mortality at 50 ppm [3, 28]: 100%; mortality at 50 ppm [3, 29]: 100%; mortality at 50 ppm [3, 30]: 90.9%; mortality at 50 ppm [3, 31]: 76.2%; mortality at 50 ppm [3, 32]: 87.5%; mortality at 50 ppm [3, 33]: 100%; mortality at 50 ppm [3, 34]: 100%; mortality at 50 ppm [3, 35]: 98.4%; mortality at 50 ppm [3, 36]: 98.8%; mortality at 50 ppm [3, 37]: 95%; mortality at 50 ppm [3, 38]: 100%; mortality at 50 ppm [3, 39]: 100%; mortality at 50 ppm [3, 40]: 100%; mortality at 50 ppm [3, 41]: 100%; mortality at 50 ppm [3, 42]: 100%; mortality at 50 ppm [3, 43]: 100%; mortality at 50 ppm [3, 44]: 100%; Mean % mortality of donors and recipients ([3]; by treatment (all ratios), 4 h): 27.18 a %; mortality at 50 ppm [4, 5]: 9%; mortality at 50 ppm [4, 6]: 0%; mortality at 50 ppm [4, 7]: 3.75%; mortality at 50 ppm [4, 8]: 17.5%; mortality at 50 ppm [4, 9]: 17.5%; mortality at 50 ppm [4, 10]: 32.5%; mortality at 50 ppm [4, 11]: 1.25%; mortality at 50 ppm [4, 12]: 12.5%; mortality at 50 ppm [4, 13]: 85%; mortality at 50 ppm [4, 14]: 31.2%; mortality at 50 ppm [4, 15]: 52.5%; mortality at 50 ppm [4, 16]: 5%; mortality at 50 ppm [4, 17]: 22.5%; mortality at 50 ppm [4, 18]: 96.2%; mortality at 50 ppm [4, 19]: 86.2%; mortality at 50 ppm [4, 20]: 67.2%; mortality at 50 ppm [4, 21]: 33.8%; mortality at 50 ppm [4, 22]: 37.5%; mortality at 50 ppm [4, 23]: 100%; mortality at 50 ppm [4, 24]: 100%; mortality at 50 ppm [4, 25]: 76.2%; mortality at 50 ppm [4, 26]: 72.5%; mortality at 50 ppm [4, 27]: 55%; mortality at 50 ppm [4, 28]: 100%; mortality at 50 ppm [4, 29]: 100%; mortality at 50 ppm [4, 30]: 87.5%; mortality at 50 ppm [4, 31]: 82.5%; mortality at 50 ppm [4, 32]: 67.5%; mortality at 50 ppm [4, 33]: 100%; mortality at 50 ppm [4, 34]: 100%; mortality at 50 ppm [4, 35]: 96.2%; mortality at 50 ppm [4, 36]: 93.8%; mortality at 50 ppm [4, 37]: 91.2%; mortality at 50 ppm [4, 38]: 100%; mortality at 50 ppm [4, 39]: 100%; mortality at 50 ppm [4, 40]: 97%; mortality at 50 ppm [4, 41]: 95%; mortality at 50 ppm [4, 42]: 96.2%; mortality at 50 ppm [4, 43]: 100%; mortality at 50 ppm [4, 44]: 100%; Mean % mortality of donors and recipients ([4]; by treatment (all ratios), 4 h): 9.68 b %; Mean % mortality of donors and recipients ([4]; by treatment (all ratios), 7 d): 97.81 a %
